Experimental findings from patent US20260043793A1, “MICROFLUIDIC CELL SPHEROIDS AND ORGANOIDS CULTURE INSERT FOR DISEASE MODELING AND SCREENING OF THERAPEUTICS” (APRICELL BIOTECHNOLOGY INC., priority 2022, published 2026) are described below.

Format in all cases: cell-based
In experiment [1] the test system is TMZ non-resistant U251 cell spheroids or organoids. In words: Growth and invasion of TMZ non-resistant U251 spheroids in Collagen/HA ECM conditioned with Reelin. On the procedure:
(§1) To investigate and compare the invasive behavior of TMZ resistant GBM cancer cells with non-resistant cell spheroids or organoids through the ECM hydrogel, we used TMZ resistant and non-resistant U251 cell lines to make cell spheroids or organoids in the device 10 or the sector 20. The method of U251 cell spheroids or organoid formation was similar to that disclosed above.
(§2) The effect of recombinant Reelin on viability of the U251 cell spheroids or organoids was studied. It was tested with 2 different concentrations of Reelin (1 and 100 nM) on cell spheroids or organoids in the device 10 or the sector 20. Moreover, to study the invasive behavior of the resistant and non-resistant cell spheroids or organoids, they were embedded in Collagen/HA hydrogel. The method of cell spheroids or organoid embedding in the hydrogel is similar to that disclosed in example 1. In this study, the effect of Reelin protein in combination with ECM hydrogel on invasiveness of the cell spheroids or organoids and their invasion length using Vimentin immunostaining and florescent microscopy respectively was studied.

Experiment [2] has as its system TMZ resistant U251 cell spheroids or organoids. In words: Growth and invasion of TMZ resistant U251 spheroids in Collagen/HA ECM conditioned with Reelin. Particulars: for average invasion length: Collagen/HA matrix. On the procedure:
as §1, §2

Experiment [3] deals with U251 cell spheroids or organoids. Kind of experiment: Effect of recombinant Reelin on viability of U251 spheroids (live-dead). Particulars: increasing Reelin concentration from 1 to 100 nM. On the procedure: as §2
It is shown in live-dead fluorescent images by increasing the number of red cells stained with Propodeum iodide (PI) compared to the green cells stained with calcein AM after treatment with 100 nM Reelin.

Experiment [4] has as its system vimentin surface marker. In words: Vimentin immunostaining of U251 spheroids (resistant and non-resistant) in collagen/HA ECM. Particulars: 10 nm of Reelin, non-resistant in comparison to resistant spheroids. An excerpt: The effect of recombinant Reelin on viability of the U251 cell spheroids or organoids was studied. […] Moreover, to study the invasive behavior of the resistant and non-resistant cell spheroids or organoids, they were embedded in Collagen/HA hydrogel. The method of cell spheroids or organoid embedding in the hydrogel is similar to that disclosed in example 1. In this study, the effect of Reelin protein in combination with ECM hydrogel on invasiveness of the cell spheroids or organoids and their invasion length using Vimentin immunostaining and florescent microscopy respectively was studied.
Level of surface vimentin expression of the tumor cells was measured as an indication of invasiveness of cell spheroids or organoids with the ECM matrix.

[5] abbreviates: 10 nM Reelin, in response to TMZ.

Consider “Reelin: recombinant Reelin protein used alone or in combination with ECM hydrogel”, for which the “invasion length in Reelin treated matrix compared to normal ECM matrix” value in experiment [1] (setting [5]) is recorded as “higher invasion length”. Moreover, the “size increase of spheroids over time (diameter)” value in experiment [1] (each Reelin concentration, day 0 to 3, compared with resistant spheroids) is on record as “more significant”. Also, the “growth of cell spheroids or organoids (diameter)” value in experiment [1] (higher concentrations of Reelin, day 3) is “more inhibitory effect on the growth”. The invasion length result in experiment [1] (increasing concentrations of Reelin, Collagen/HA matrix) is “constantly increasing”. In addition, the figures for the average invasion length result in experiment [2] (10 nM Reelin) and in experiment [2] (100 nM Reelin) were “around 400 μm” and “drops significantly”, respectively. The “invasion length in Reelin conditioned matrix compared to normal matrix” value in experiment [2] (setting [5]) was “reverse”. In experiment [2] (higher concentrations of Reelin, day 3, compared with non-resistant), the “inhibitory effect on growth (diameter)” value is given as “less”. In experiment [3], the cell viability result was “significant decrease in cell viability”. In experiment [4], the “fluorescent intensity index of the vimentin surface marker” value was “higher fluorescent intensity index”.
